The record followed here is patent US8158661B2, “GSK-3 inhibitors” (Noscira, S.A., priority 2004, dated 2012).

The structures appear in SMILES notation. Bounds are passed on as bounds.

The target of data set [1] is T1, Bovine serum albumin (Fraction V) (Bos taurus, UniProt P02769).
T1 construct: Bovine serum albumin (Fraction V) (Sigma); purchased Sigma
The experiment in a line: Binding to BSA (incubation, HPLC-UV/MS). The format is in vitro ADME. Conditions: compound and BSA 1 mM each, 30 minutes at room temperature. How it is done: The compounds (working solution at 1 mM) were incubated during 30 minutes at room temperature with Glutathione (Sigma) and Bovine serum albumin (Fraction V) (Sigma) at equimolecular concentrations (1 mM). After this time the solution was filtrated and analysed by HPLC-UV/MS.
HPLC was performed with a symmetry C18 (2.1×150 mm, 3.5 μm) column using a Waters Alliance 2695 with a 2996 photodiode array and ZQ2000 mass spectrometer used for the analytical separation and for UV and mass determination. The gradient used for the elution was: […]
Flux: 0.25 mL/min; temp: 30° C.; Detection: 250 nm; Injection Volume: 10 μL

The nature of data set [2]: Brain permeation and pharmacokinetics after oral and intravenous administration. It counts as in vivo, C57/BL6 mice. The settings on record: mice. How it is done: C57/BL6 mice (15-30 g) from Charles River laboratories Spain were used in this study. […] Water was available ad libitum. Animals were fasted for 4 hours before treatment, but with water ad libitum. They were fed 2 hours after administration.
The route of administration was a single oral administration at […] (10 mL/kg) and single intravenous administration at 2 mg/kg (10 mL/kg). An additional experiment was performed at 200 mg/kg by the oral route only to determine proportionality of absorption.
Blood was heparinized, and after centrifugation (3000 rpm, 10 mins, 5° C.), two plasma aliquots stored at −20° C. and −30° C. until analysis (HPLC/MS-MS).

Data set [3] deals with Recombinant human glycogen synthase kinase 3β (Homo sapiens, UniProt P49841). The experiment in a line: GSK-3β inhibition. The format is biochemical. Conditions: recombinant human GSK-3β, GS-2 62.5 μM, ATP 12.5 μM, 30 min at 30° C. How it is done: The GSK-3β activity was determined by incubation of a mixture of recombinant human GSK-3 enzyme, a phosphate source and GSK-3 substrate in the presence and in the absence of the corresponding test compound, and by measuring the GSK-3 activity of this mixture.
Recombinant human glycogen synthase kinase 3β, sequence (P49841 whole entry): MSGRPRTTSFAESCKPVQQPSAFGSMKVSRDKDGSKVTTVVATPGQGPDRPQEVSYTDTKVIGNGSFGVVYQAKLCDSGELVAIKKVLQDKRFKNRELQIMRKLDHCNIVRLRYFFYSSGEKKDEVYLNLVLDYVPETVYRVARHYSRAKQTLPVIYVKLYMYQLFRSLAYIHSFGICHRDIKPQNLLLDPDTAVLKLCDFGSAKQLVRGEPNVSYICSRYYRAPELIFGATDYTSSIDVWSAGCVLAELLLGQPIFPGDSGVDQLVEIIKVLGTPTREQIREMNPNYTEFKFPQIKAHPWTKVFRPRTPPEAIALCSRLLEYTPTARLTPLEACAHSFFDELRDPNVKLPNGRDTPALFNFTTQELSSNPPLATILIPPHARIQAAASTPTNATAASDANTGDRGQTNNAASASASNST
The final assay volume was 20 μl. After incubation for 30 minutes at 30° C., 15 μl aliquots were spotted onto P81 phosphocellulose papers. Filters were washed four times for at least 10 minutes each and counted with 1.5 ml of scintillation cocktail in a scintillation counter.

T1 sequence (P02769 25-607): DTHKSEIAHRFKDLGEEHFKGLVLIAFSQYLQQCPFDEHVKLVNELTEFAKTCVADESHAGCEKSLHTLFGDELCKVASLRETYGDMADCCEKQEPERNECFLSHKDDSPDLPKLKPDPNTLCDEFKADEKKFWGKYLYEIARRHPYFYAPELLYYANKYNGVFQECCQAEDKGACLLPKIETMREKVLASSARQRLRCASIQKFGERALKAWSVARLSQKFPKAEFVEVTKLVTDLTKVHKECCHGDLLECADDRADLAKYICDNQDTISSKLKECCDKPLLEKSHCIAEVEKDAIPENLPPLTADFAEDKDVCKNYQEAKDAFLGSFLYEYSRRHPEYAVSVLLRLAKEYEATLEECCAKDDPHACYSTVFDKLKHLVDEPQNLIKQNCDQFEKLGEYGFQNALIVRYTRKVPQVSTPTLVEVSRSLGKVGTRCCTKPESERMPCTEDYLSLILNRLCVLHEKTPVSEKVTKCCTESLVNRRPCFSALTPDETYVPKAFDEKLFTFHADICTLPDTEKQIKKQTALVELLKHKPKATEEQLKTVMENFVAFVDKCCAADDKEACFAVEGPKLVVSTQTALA

Take `O=c1sn(-c2cccc3ccccc23)c(=O)n1Cc1ccccc1` [Compound 2, 4-Benzyl-2-naphthalen-1-yl-[1,2,4]thiadiazolidine-3,5-dione]: the “% unbinding compound, albumin” value in data set [1] is 98.0%. The bioavailability (in general, dose-corrected exposure relative to a reference, in per cent) in data set [2] (both sexes, C57/BL6, mouse, plasma, oral 20 mg/kg vs intravenous 2 mg/kg) worked out at 31.9%. The half-life (commonly the time in which the quantity being followed falls by half) in data set [2] (both sexes, C57/BL6, mouse, plasma, oral administration of 20 mg/kg) is 6 h. Further, the Cmax (in general, the maximum level reached in the sampled fluid or tissue) stood at 905 ng/mL in data set [2] (both sexes, C57/BL6, mouse, single oral dose 20 mg/kg, plasma) and 9060 ng/mL in data set [2] (both sexes, C57/BL6, mouse, single oral dose 200 mg/kg, plasma). Further, the “Absorption from the GI tract” value in data set [2] (after oral administration) is reported as “quickly absorbed”. The “Levels in the brain” value in data set [2] (both after oral and intravenous administration) is reported as “detected in the brain”.

In the case of `O=c1sn(CCc2ccccc2)c(=O)n1Cc1ccccc1` [Compound 1, 2-Phenethyl-4-benzyl-(1,2,4)thiadiazolidine-3,5-dione], the IC50 (as a rule, the midpoint of a concentration-inhibition curve) in data set [3] came out at 3 µM. Further, the “% unbinding compound, albumin” value in data set [1] came to 80.2%.

For `Cc1ccc(Cn2sc(=O)n(Cc3ccccc3)c2=O)cc1` [Compound 4, 4-Benzyl-2-(4-methyl-benzyl)-[1,2,4]thiadiazolidine-3,5-dione], the IC50 in data set [3] worked out at 1.8 µM. Also, the “% unbinding compound, albumin” value in data set [1] was 67.2%.

On to `O=c1sn(Cc2ccccc2)c(=O)n1Cc1ccccc1` [2,4-dibenzyl-1,2,4-thiadiazolidine-3,5-dione, reference compound], for which the “% unbinding compound, albumin” value in data set [1] came out at 57.0%.

As for `O=c1sn(-c2ccc3c(c2)OCO3)c(=O)n1Cc1ccccc1` [Compound 5, 4-Benzyl 2-((3,4-methylenedioxy)phenyl)-[1,2,4]thiadiazolidine-3,5-dione], the IC50 in data set [3] was 4.2 µM. In addition, the “% unbinding compound, albumin” value in data set [1] is 65.5%.

Consider `O=c1sn(-c2ccc(Oc3ccccc3)cc2)c(=O)n1Cc1ccccc1` [Compound 10, 4-Benzyl-2-(4-phenoxyphenyl)-[1,2,4]thiadiazolidine-3,5-dione], for which the melting point (commonly the temperature of the solid-liquid transition) amounted to 88.8 °C. Further, the IC50 in data set [3] came to 3 µM. Further, in data set [1], the “% unbinding compound, albumin” value stood at 98.9%.

`O=c1sn(C23CC4CC(CC(C4)C2)C3)c(=O)n1Cc1ccccc1` [Compound 3, 2-(1-adamantyl)-4-benzyl-[1,2,4]thiadiazolidine-3,5-dione] yielded a melting point of 128.8 °C. In addition, the half-maximal inhibitory concentration (IC50) in data set [3] was over 50 µM. For the same compound, the “% unbinding compound, albumin” value in data set [1] stood at 54.0%.

Compound `O=c1sn(C(c2ccccc2)c2ccccc2)c(=O)n1Cc1ccccc1` [Compound 6, 4-Benzyl-2-diphenylmethyl-1,2,4-thiadiazolidine-3,5-dione] showed a melting point of 111.5 °C. Moreover, the IC50 in data set [3] amounted to 2 µM. In addition, the “% unbinding compound, albumin” value in data set [1] is 84.0%.

`Cc1cccc(C(C)(C)C)c1-n1sc(=O)n(Cc2ccccc2)c1=O` [Compound 8, 4-Benzyl-2-(2-tert-butyl-6-methyl-phenyl)-(1,2,4)thiadiazolidine-3,5-dione] returned a melting point of 89.8 °C. Further, the IC50 in data set [3] turned out to be 3 µM. Also, the “% unbinding compound, albumin” value in data set [1] was found to be 62.3%.

Turning to `COc1ccc(Cn2sc(=O)n(Cc3ccccc3)c2=O)cc1` [Compound 7, 4-Benzyl-2-(4-methoxybenzyl)-[1,2,4]thiadiazolidine-3,5-dione], the IC50 in data set [3] is under 50 µM. Also, in data set [1], the “% unbinding compound, albumin” value is on record as 68.3%.

On to `O=c1sn(-c2ccccc2Cc2ccccc2)c(=O)n1Cc1ccccc1` [Compound 9, 4-Benzyl-2-(2-benzyl-phenyl)-[1,2,4]thiadiazolidine-3,5-dione], for which the melting point stood at 154.9 °C. Besides, the IC50 in data set [3] was 8 µM. The “% unbinding compound, albumin” value in data set [1] is 91.4%.
